This is an account of results in patent publication US5316773A, “Particulate preparation containing a flourracil derivative and hydroxypropylmethyl-cellulose” (Otsuka Pharmaceutical Co., Ltd., priority 1990, dated 1994).

The conditions of series [1]: after administration in vivo; via conversion into EM-FU and CNDP; cited from earlier work.
The nature of series [2]: Absorption test using beagle (oral administration, EM-FU concentration in plasma). The class given is in vivo. Conditions: preparations corresponding to 100 mg BOF-A2 per beagle, all cases.

The structures appear in SMILES notation.

With `CCOCn1cc(F)c(=O)n(C(=O)c2cccc(C(=O)Oc3nc(OC(=O)c4ccccc4)ccc3C#N)c2)c1=O` [BOF-A2, 3-[3-(6-Benzoyloxy-3-cyano-2-pyridyloxycarbonyl)benzoyl]-1-ethoxymethyl-5-fluorouracil], the anti-cancer activity result in series [1] is “continuous and strong anti-cancer activity”. For the same molecule, the “non-changed compound (BOF-A2) in plasma” value in series [2] is “not detected”.
